Assay results: paper PMC12589438 (Communications Chemistry, 2025)
Positions of bridges follow the written chain, without caps; N, C: chain ends. Non-standard residues stand in square brackets, D forms with d. Residues, ends and D or L forms follow the SMILES beside them. *: point of attachment. Benzoyl(4-F) = O=C(c1ccc(F)cc1)*; Mpa = O=C(O)CCS

Assays:
[1] = physchem; conditions: buffer
Procedure: (§3) Tested peptides were dissolved (1 mM) in 100 mM sodium citrate buffer (pH 3), 100 mM potassium phosphate buffer (pH 7), or 100 mM sodium carbonate buffer (pH 9).

[2] = in vitro; conditions: rat, serum
Procedure: One hundred and fifty microliters of rat or human serum (Sigma Aldrich) was preheated at 37 °C for 30 min. 25 μL of the tested peptide sample (0.3 M in 0.1 M potassium phosphate buffer at pH 7.2) or 0.1 M potassium phosphate buffer pH 7.2 (for blank sample) were added to the serum and incubated at 37 °C. […] Sampled were centrifugated at 20,000 × g for 10 min, and the supernatant analysed via LC-MS (column: Agilent Technology, Zorbex C18, 2.1 × 100 mm, 5 μm, 300 Å. Elution method: 0–50% B in 50 min, 0.25 mL/min. Solvent A: 0.1% TFA in H2O. Solvent B: 0.1% TFA in ACN). Each peptide sample was analysed in three independent experiments, and data analysis was performed using Prism Version 7, a nonlinear fit one-phase decay model.

[3] = Hydrophobicity assessment by analytical C18-RP-HPLC; format: physicochemical; conditions: 0–40% B
Procedure: To identify the most OT-like radiotracer, we first assessed the hydrophobicity of all compounds by comparing their retention times with OT on an analytical C18-RP-HPLC column (Fig. 2A).
Fig. 2 Pharmacological characterisation of OT analogues. […] B Metabolic stability of OT analogues in rat and human serum. Each time point was analysed in three independent experiments (n = 3 technical triplicates, mean ± SEM). C Potencies (EC50) values for OT and analogues at the human OTR, V1aR, and V1bR, determined by a FLIPR calcium mobilisation assay (n = 3 technical triplicates, mean ± SEM). […]; similar hydrophobicity with HPLC Rt ± 20% from OT; buffer t1/2 > 30 min at pH 7; […]; EC50 at OTR < 50 nM; EC50 at V1aR and V1bR < 5×EC50(OTR) (n.a.: not assessed).

[4] = molecular target: T1, human V1aR (Homo sapiens, UniProt P37288); test: FLIPR calcium mobilisation assay, hV1aR; format: cell-based; conditions: COS-1 cells transfected with hV1aR; n = 3, mean ± SEM
T1 construct: expressed in transfected cells; host or cells: COS-1
T1 sequence (P37288 whole entry): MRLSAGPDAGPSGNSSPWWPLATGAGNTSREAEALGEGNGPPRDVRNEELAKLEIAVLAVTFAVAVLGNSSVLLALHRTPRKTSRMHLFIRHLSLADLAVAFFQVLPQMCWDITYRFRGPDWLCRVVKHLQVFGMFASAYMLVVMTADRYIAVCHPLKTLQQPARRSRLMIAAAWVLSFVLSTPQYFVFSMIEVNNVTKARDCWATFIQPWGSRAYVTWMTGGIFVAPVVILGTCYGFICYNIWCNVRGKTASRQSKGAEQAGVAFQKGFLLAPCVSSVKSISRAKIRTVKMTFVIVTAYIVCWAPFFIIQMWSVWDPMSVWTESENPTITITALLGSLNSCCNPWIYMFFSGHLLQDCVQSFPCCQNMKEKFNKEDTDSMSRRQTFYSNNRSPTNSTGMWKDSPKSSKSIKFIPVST
Procedure: (§1) OTR belongs to the rhodopsin-type (class I) G protein-coupled receptor (GPCR) family and is closely related to the vasopressin (VP) receptor (VPR) family (V1aR, V1bR, V2R). […] OTR, V1aR, and V1bR are expressed in the periphery and in CNS, while V2R is primarily expressed in the kidneys and was deemed not in scope for our exploration. The EC50 of our ligands was measured using a Fluorescent Imaging Plate Reader (FLIPR) calcium mobilisation assay (Fig. 2C)[34].
(§2) COS-1 cells were cultured in Dulbecco’s modified Eagle’s medium (DMEM) and 5% foetal bovine serum (FBS). […] Fluo-4-AM [4-(6-acetoxymethoxy-2,7-difluoro-3-oxo-9-xanthenyl)-4′-methyl-2,2′-(ethylenedioxy)dianilineN,N,N′,N′-tetraacetic acid tetrakis(acetoxymethyl) ester] ([…]) in PSS containing 0.3% fatty acid-free BSA was then added, and the cells incubated for 30 min at 37 °C. The cells were then transferred to a […] The baseline fluorescence was set to a minimum of 1000 arbitrary fluorescence units. The baseline fluorescence was read 10 times, followed by the addition of test compounds and fluorescence measurement every second for 180 s. The test compounds were added as an 8-point gradient in triplicate, with the highest concentration of 10 μM in PSS. To convert the raw fluorescence data to DF/F, the baseline fluorescence readings were subtracted from subsequent time points, and the resulting value was divided by the baseline fluorescence values.

[5] = molecular target: T2, human V1bR (Homo sapiens, UniProt P47901); test: FLIPR calcium mobilisation assay, hV1bR; format: cell-based; conditions: COS-1 cells transfected with hV1bR; n = 3, mean ± SEM
T2 construct: expressed in transfected cells; host or cells: COS-1
T2 sequence (P47901 1-424): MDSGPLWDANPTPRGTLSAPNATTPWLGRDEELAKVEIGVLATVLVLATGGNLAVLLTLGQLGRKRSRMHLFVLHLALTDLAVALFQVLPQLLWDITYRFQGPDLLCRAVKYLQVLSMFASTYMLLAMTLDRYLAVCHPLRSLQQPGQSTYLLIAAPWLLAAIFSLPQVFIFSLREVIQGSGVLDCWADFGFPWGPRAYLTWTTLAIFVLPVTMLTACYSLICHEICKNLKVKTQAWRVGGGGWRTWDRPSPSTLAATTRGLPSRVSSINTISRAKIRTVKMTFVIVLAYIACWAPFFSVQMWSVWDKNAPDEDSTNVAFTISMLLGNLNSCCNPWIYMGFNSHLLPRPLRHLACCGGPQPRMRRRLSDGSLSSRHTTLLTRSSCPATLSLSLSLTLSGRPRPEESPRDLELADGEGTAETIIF
Procedure: as §1
as §2, with “°C.” for “°C. The cells were then transferred to a”

[6] = molecular target: T3, human OTR (Homo sapiens, UniProt P30559); test: FLIPR calcium mobilisation assay, hOTR; format: cell-based; conditions: for EC50: COS-1 cells transfected with hOTR, n = 3, mean ± SEM
T3 construct: expressed in transfected cells; host or cells: COS-1
T3 sequence (P30559 1-389): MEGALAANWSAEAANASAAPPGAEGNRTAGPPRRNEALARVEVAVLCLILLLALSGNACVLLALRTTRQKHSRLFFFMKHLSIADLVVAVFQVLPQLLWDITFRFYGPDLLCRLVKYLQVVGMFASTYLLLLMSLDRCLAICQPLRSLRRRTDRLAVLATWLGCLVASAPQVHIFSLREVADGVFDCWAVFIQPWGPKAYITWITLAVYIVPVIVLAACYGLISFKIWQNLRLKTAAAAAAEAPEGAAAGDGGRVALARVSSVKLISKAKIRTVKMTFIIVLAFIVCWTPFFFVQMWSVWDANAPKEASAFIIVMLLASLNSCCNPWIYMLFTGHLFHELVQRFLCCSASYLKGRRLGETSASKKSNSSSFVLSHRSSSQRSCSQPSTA
Procedure: as §1
as §2, with “°C.” for “°C. The cells were then transferred to a”

[7] = pH 7
Procedure: as §3

[8] = Stability test at different pH (buffered solutions); conditions: buffer
Procedure: as §3

[9] = pH 3, t1/2 pH 3.0, 100 mM sodium citrate buffer pH 3, 10 h
[10] = pH 7, t1/2 pH 7.0, 100 mM potassium phosphate buffer pH 7, 10 h
[11] = pH 9, t1/2 pH 9.0, 100 mM sodium carbonate buffer pH 9, 10 h

| Compound | half-life at 1 mM ([1]; pH 3) [h] | half-life at 1 mM ([1]; pH 7) [h] | half-life at 1 mM ([1]; pH 9) [h] | half-life at 0.043 M [2] [h] | EC50 [4] [nM] | EC50 [5] [nM] | EC50 [6] [nM] | fold less potent than OT at OTR ([6]; EC50 compared with OT) | degradation within 10 h [7] [%] | fold more potent than OT at OTR ([6]; EC50 compared with OT) | hydrophobicity compared with OT (retention on C18-RP-HPLC) [3] | half-life at 1 mM [8, 9] [h] | half-life at 1 mM ([8]; pH 7, t1/2 at pH 7, pH 7, as stated in main text) [h] | half-life at 1 mM [8, 10] [h] | half-life at 1 mM ([8]; pH 9, t1/2 at pH 9, pH 9, as stated in main text) [h] | half-life at 1 mM [8, 11] [h] |
| --- | --- | --- | --- | --- | --- | --- | --- | --- | --- | --- | --- | --- | --- | --- | --- | --- |
| CC[C@H](C)[C@@H]1NC(=O)[C@H](Cc2ccc(O)cc2)NC(=O)[C@@H](N)CSSC[C@@H](C(=O)N2CCC[C@H]2C(=O)N[C@@H](CC(C)C)C(=O)NCC(N)=O)NC(=O)[C@H](CC(N)=O)NC(=O)[C@H](CCC(N)=O)NC1=O [OT, oxytocin, reference compound] | > 10 | > 10 | > 10 | 47 ± 0.05 | – | – | – | – | – | – | – | – | – | – | – | – |
| CC[C@H](C)[C@@H]1NC(=O)[C@H](Cc2ccc(O)cc2)NC(=O)CCSSC[C@@H](C(=O)N2CCC[C@H]2C(=O)N[C@@H](CCCCN(CCS(=O)(=O)F)CCS(=O)(=O)F)C(=O)NCC(N)=O)NC(=O)[C@H](CC(N)=O)NC(=O)[C@H](CCC(N)=O)NC1=O [dOTK^8[ESF2]] | – | – | – | – | – | – | – | – | – | – | significantly more hydrophobic | 3.6 | < 0.5 | < 1 | < 0.5 | < 1 |
| CC[C@H](C)[C@@H]1NC(=O)[C@H](Cc2ccc(O)cc2)NC(=O)CCSSC[C@@H](C(=O)N2CCC[C@H]2C(=O)N[C@@H](CCCCNCCS(=O)(=O)F)C(=O)NCC(N)=O)NC(=O)[C@H](CC(N)=O)NC(=O)[C@H](CCC(N)=O)NC1=O [dOTK^8[ESF]] | – | – | – | – | – | – | – | – | – | – | – | > 10 | – | > 10 | – | > 10 |

Now from value to molecule, other results behind:

| half-life at 1 mM ([1]; pH 3) [h] | half-life at 1 mM ([1]; pH 7) [h] | half-life at 1 mM ([1]; pH 9) [h] | half-life at 0.043 M [2] [h] | EC50 [4] [nM] | EC50 [5] [nM] | EC50 [6] [nM] | fold less potent than OT at OTR ([6]; EC50 compared with OT) | degradation within 10 h [7] [%] | fold more potent than OT at OTR ([6]; EC50 compared with OT) | Compound | hydrophobicity compared with OT (retention on C18-RP-HPLC) [3] | half-life at 1 mM [8, 9] [h] | half-life at 1 mM ([8]; pH 7, t1/2 at pH 7, pH 7, as stated in main text) [h] | half-life at 1 mM [8, 10] [h] | half-life at 1 mM ([8]; pH 9, t1/2 at pH 9, pH 9, as stated in main text) [h] | half-life at 1 mM [8, 11] [h] |
| --- | --- | --- | --- | --- | --- | --- | --- | --- | --- | --- | --- | --- | --- | --- | --- | --- |
| > 10 | > 10 | > 10 | 18 ± 0.04 | 331.6 ± 0.4 | 354 ± 5.7 | 42.1 ± 1.4 | ~ 4 fold | – | – | CC[C@H](C)[C@@H]1NC(=O)[C@H](Cc2ccc(O)cc2)NC(=O)[C@@H](N)CSSC[C@@H](C(=O)N2CCC[C@H]2C(=O)N[C@@H](CCCCNC(=O)CON=Cc2ccc(F)cc2)C(=O)NCC(N)=O)NC(=O)[C@H](CC(N)=O)NC(=O)[C@H](CCC(N)=O)NC1=O [OTK^8[Aoa-FBA]] | significantly more hydrophobic | – | – | – | – | – |
| > 10 | > 10 | > 10 | 13 ± 0.11 | 115 ± 81 | 54 ± 31 | 5.25 ± 5.1 | – | 25 | ~ 2 fold | CC[C@H](C)[C@@H]1NC(=O)[C@H](Cc2ccc(O)cc2)NC(=O)[C@@H](N)CSSC[C@@H](C(=O)N2CCC[C@H]2C(=O)N[C@@H](CCCCNC(=O)CON=C[C@H](F)[C@@H](O)[C@H](O)[C@H](O)CO)C(=O)NCC(N)=O)NC(=O)[C@H](CC(N)=O)NC(=O)[C@H](CCC(N)=O)NC1=O [OTK^8[Aoa-FDG]] | – | – | – | – | – | – |
| > 10 | > 10 | > 10 | > 48 | 334.3 ± 0.6 | 46 ± 3.6 | 46.8 ± 1.5 | ~ 4 fold | 25 | – | CC[C@H](C)[C@@H]1NC(=O)[C@H](Cc2ccc(O)cc2)NC(=O)CCSSC[C@@H](C(=O)N2CCC[C@H]2C(=O)N[C@@H](CCCCNC(=O)c2ccc(F)cc2)C(=O)NCC(N)=O)NC(=O)[C@H](CC(N)=O)NC(=O)[C@H](CCC(N)=O)NC1=O [dOTK^8[SFB]] ([Mpa]YIQNCPK(Benzoyl(4-F))G-NH2; disulfide 1-6) | – | – | – | – | – | – |
